From patent publication USRE30413E, “Bleomycinic acid and process for preparing thereof” (Zaidan Hojin Biseibutsu Kagaku Kenkyu Kai, priority 1971, dated 1980)
Like-named read-outs stand apart in the source and are kept apart here.

What was measured:
Mycobacterium 607 = assay: cup test, antimicrobial activity to Mycobacterium 607; format: cell-based; conditions: standard bleomycin A2 = 1000 μ/mg
Excerpt: The endpoint of the hydrolysis reaction can be determined by a reaction in antimicrobial activity of the bleomycin substrate as measured by conventional cup tests using Mycobacterium 607, or by a change in the Rf value during thin layer chromatography.

ICR-JCL male mice = conditions: for Total, degree of fibrosis ++: number of mice with grade ++, fourth Total column; for Total, degree of fibrosis -: number of mice with grade -, first Total column; for Total, degree of fibrosis ±: number of mice with grade ±, second Total column
Excerpt: The mice were bred for 5 weeks after the final administration and were then dissected. The right and left lungs were observed by microscopic examination.

HeLa (S3 bb cell line) = conditions: third day after addition
Excerpt: wherein the inhibitory effect= [formula] Co: relative number of cell on the first day t3 : relative number of cell on the third day after the addition of a bleomycin (3 mcg/ml in final)
C3 : relative number of cell in negative control on the third day

[1] = solubility of the hydrochloride in solvents; format: physicochemical

Cc1c(N)nc([C@H](CC(N)=O)NC[C@H](N)C(N)=O)nc1C(=O)N[C@H](C(=O)N[C@H](C)[C@@H](O)[C@H](C)C(=O)N[C@H](C(=O)NCCc1nc(-c2nc(C(=O)NCCC[S+](C)C)cs2)cs1)[C@@H](C)O)[C@@H](O[C@@H]1O[C@@H](CO)[C@@H](O)[C@H](O)[C@@H]1O[C@H]1O[C@H](CO)[C@@H](O)[C@H](OC(N)=O)[C@@H]1O)c1c[nH]cn1.[Br-] [bleomycin A2, 3-dimethylsulfopropylamino-bleomycin]
antimicrobial activity to Mycobacterium 607 (Mycobacterium 607): 1000 μ/mg

Cc1c(N)nc([C@H](CC(N)=O)NC[C@H](N)C(N)=O)nc1C(=O)N[C@H](C(=O)N[C@H](C)[C@@H](O)[C@H](C)C(=O)N[C@H](C(=O)NCCc1nc(-c2nc(C(=O)NCCCCN=C(N)N)cs2)cs1)[C@@H](C)O)[C@@H](O[C@@H]1O[C@@H](CO)[C@@H](O)[C@H](O)[C@@H]1O[C@H]1O[C@H](CO)[C@@H](O)[C@H](OC(N)=O)[C@@H]1O)c1cnc[nH]1 [bleomycin B2, 4-guanidinobutylamino-bleomycin]
Total, degree of fibrosis ++ (ICR-JCL male mice; lung L): 1
Total, degree of fibrosis - (ICR-JCL male mice; lung L): 5
Total, degree of fibrosis ± (ICR-JCL male mice; lung L): 1
Total, degree of fibrosis ++ (ICR-JCL male mice; lung R): 0
Total, degree of fibrosis - (ICR-JCL male mice; lung R): 4
Total, degree of fibrosis ± (ICR-JCL male mice; lung R): 3
Inhibitory effect (HeLa (S3 bb cell line); 1.5 mcg/ml): 33
Inhibitory effect (HeLa (S3 bb cell line); 3 mcg/ml): 64
Inhibitory effect (cell culture of Yoshida; 0.625 mcg/ml): 8.6
Inhibitory effect (cell culture of Yoshida; 1.25 mcg/ml): 34.0
Inhibitory effect (cell culture of Yoshida; 2.5 mcg/ml): 56.0

hydrochloride of bleomycinic acid
solubility ([1]; acetic acid): sparingly soluble
solubility ([1]; acetone): insoluble
solubility ([1]; dimethylsulfoxide): sparingly soluble
solubility ([1]; ethanol): insoluble
solubility ([1]; ether): insoluble
solubility ([1]; ethyl acetate): insoluble
solubility ([1]; methanol): sparingly soluble
solubility ([1]; water): soluble

benzylamino-bleomycin
Inhibitory effect (HeLa (S3 bb cell line); 1.5 mcg/ml): 38
Inhibitory effect (HeLa (S3 bb cell line); 3 mcg/ml): 73
Inhibitory effect (HeLa (S3 bb cell line); 6 mcg/ml): 92
